Data: PubChem BioAssay (NCI)
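How tested: cells in 96-well plates exposed to compound for 48 hours at five concentrations. Abbreviation: GI50, concentration required for 50% inhibition of growth. TGI: total growth inhibition.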

Tests used:
Assay in all cases: inhibition of tumour cell growth, NCI panel, 48 h
[1] = system: HCT-15 colon
[2] = system: MALME-3M melanoma
[3] = system: MCF7 breast
[4] = system: MDA-MB-231 breast
[5] = system: MDA-MB-435
[6] = system: SF-295 CNS
[7] = system: SK-MEL-28 melanoma
[8] = system: CAKI-1 renal

Row | Compound | GI50 [1] [µM] | TGI [1] [µM] | GI50 [2] [µM] | TGI [2] [µM] | GI50 [3] [µM] | TGI [3] [µM] | GI50 [4] [µM] | TGI [4] [µM] | GI50 [5] [µM] | TGI [5] [µM] | GI50 [6] [µM] | TGI [6] [µM] | GI50 [7] [µM] | TGI [7] [µM] | GI50 [8] [µM] | TGI [8] [µM]
1 | C=C1C(=O)O[C@H]2[C@H]1CC/C(COC(=O)/C=C/c1c[nH]c3ccccc13)=C\CC[C@@]1(C)O[C@@H]21 | 0.181 | 0.425 | 0.283 | 0.828 | 0.226 | 1.01 | 0.177 | 0.374 | 0.222 | 0.582 | 1.62 | 3.14 | 0.332 | 1.3 |  | 
2 | CC(C)=CCC/C(C)=C/[C@H]1OC(=O)CC12C[C@H](O)C=CC2=O (stereo partly specified) | 0.509 | > 100 |  |  | 0.421 | 1.29 | 1.55 | 3.29 | 0.458 | 1.64 | 1.98 | 4.69 | 2.23 | 5.09 | 0.827 | 2.3
3 | CCC1OC(/C(C)=C/C(C)/C=C/C2C(C)C2/C=C/C2OC(CC(=O)O)CC(O)C2O)CC=C1C (stereo unspecified) | > 50 | > 50 | 1.99 | > 50 | > 50 | > 50 |  |  | > 50 | > 50 | > 50 | > 50 | > 50 | > 50 | > 50 | > 50
4 | O[C@H](CN1CC1)[C@@H](O)CN1CC1 | 10.6 | 88.9 |  |  | 1.84 | > 100 | 24 | 71.6 | 10.5 | 29.8 | 0.382 | 1.71 | 19.5 | 84.7 | 0.423 | 2.85
5 | C=C(C)[C@@H]1CC[C@]2(C)[C@H](CC=C3[C@@H]4[C@H](C)[C@@H](C)CC[C@]4(CO)CC[C@]32C)[C@@]1(C)CCCN | 0.839 | 1.76 | 0.734 | 1.42 |  |  | 0.957 | 1.71 | 0.953 | 1.81 | 0.847 | 1.58 | 0.952 | 1.67 | 1.69 | 5.58
6 | COc1ccc(S(=O)(=O)n2c3ccccc3n3ncc(-c4nnc(C)o4)c23)cc1 | 0.424 | > 75.8 |  |  | 0.397 | > 69.8 | 1.86 | 39.6 | 0.339 | > 100 | 0.37 | 14.4 | 11.3 | 34.8 | 0.449 | > 100
7 | Cc1ccc(/C=C2\CN(Cc3cn(CCNc4ccnc5cc(Cl)ccc45)nn3)C/C(=C\c3ccc(C)cc3)C2=O)cc1 |  |  | 1.7 | 3.47 | 1.62 | 3.46 | 2.14 | 4.62 | 1.66 | 3.1 | 1.99 | 3.73 | 1.74 | 3.26 |  | 
8 | S=C(Nc1ccccc1)N1CCn2c1nsc2=Nc1ccccc1 | 78.2 | > 100 |  |  | > 100 | > 100 | 34.8 | > 100 | > 100 | > 100 | 40.4 | > 100 | > 100 | > 100 | > 100 | > 100
9 | CCC1(CC)C(=O)[N-]C(=O)[N-]C1=O.[Au+].[Au+].c1ccc([PH+](c2ccccc2)c2ccccc2)cc1.c1ccc([PH+](c2ccccc2)c2ccccc2)cc1 |  |  | 0.626 | 1.94 |  |  |  |  |  |  | 1.52 | 2.91 | 0.988 | 2.34 |  | 
10 | COc1cc(/C=C\c2cc(OC)c(OC)c(OC)c2)cc(NS(=O)(=O)c2cccc(Cl)c2)c1OC | 0.146 | > 100 | 20 | > 100 | 0.0533 | > 100 | 0.259 | > 100 |  |  | 0.0453 | > 100 | 1.61 | 49 | 0.0527 | 27.8
11 | CC(=O)NS(=O)(=O)c1ccc(-n2nc(-c3ccccc3)cc2C2=CC(=O)C=CC2=O)cc1 | > 100 | > 100 |  |  | > 100 | > 100 | > 100 | > 100 | > 100 | > 100 | > 100 | > 100 | > 100 | > 100 | > 100 | > 100
12 | CC(=O)O[C@H](C[C@H](C(C)C)N(C)C(=O)[C@@H](NC(=O)[C@H]1CCCCN1C)C(C)(C)C)c1nc(C(=O)N[C@@H](Cc2ccccc2)C[C@H](C)C(=O)O)cs1 | < 0.0025 | > 25 | < 0.0025 | > 25 | < 0.0025 | > 25 | < 0.0025 |  |  |  | < 0.0025 | > 8.94 | 1.05 | > 25 | < 0.0025 | > 25
13 | Cn1c(O)c(N=NC(N)=S)c2ccccc21 | 44.6 | > 100 |  |  | 20.3 | > 100 | > 100 | > 100 | > 100 | > 100 | 27.1 | > 100 | > 100 | > 100 | 23.6 | 91.7
